From patent US12568969B2, “Pyridine compounds for controlling invertebrate pests” (FMC Corporation, priority 2020, dated 2026) come the findings set out here.

Holding throughout (format): in vivo
For test [1], the system named is diamondback moth (Plutella xylostella (L.)). Nature of the test: Test A: control of diamondback moth on mustard plant, spray. To be noted: sprayed at 250 ppm; assessed after 6 days. The procedure: (§1) Test compounds were formulated using a solution containing 10% acetone, […] and 300 ppm Activator 909 non-ionic surfactant (Loveland Products, Loveland, Colorado, USA). The formulated compounds were applied in 1 mL of liquid through an atomizer nozzle positioned 1.27 cm (0.5 inches) above the top of each test unit. Test compounds were sprayed at the rates indicated, and each test was replicated three times.
For evaluating control of diamondback moth (Plutella xylostella (L.)) the test unit consisted of a small open container with a 12-14-day-old mustard plant inside. This was pre-infested with ˜50 neonate larvae that were dispensed into the test unit via corn cob grits using an inoculator. The larvae moved onto the test plant after being dispensed into the test unit.
Test compounds were formulated and sprayed at 250 ppm. After spraying of the formulated test compound, each test unit was allowed to dry for 1 hour and then a black, screened cap was placed on top. The test units were held for 6 days in a growth chamber at 25° C. and 70% relative humidity. Plant feeding damage was then visually assessed based on foliage consumed, and larvae were assessed for mortality.

In test [2] the test system is corn planthopper (Peregrinus maidis (Ashmead)). Nature of the test: whole plant or invertebrate. To be noted: Peregrinus maidis, 144 h, 6 days; for mortality at 50 ppm: sprayed at 50 ppm; for mortality at 250 ppm: sprayed at 250 ppm; for mortality at 10 ppm: sprayed at 10 ppm. In short, it runs like this: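 Corn plants 3-4 days old were sprayed at 250, 50 and/or 10 ppm in 10% acetone with 300 ppm non-ionic surfactant, three replicates, contact and/or systemic exposure. After 1 h drying, ~15-20 nymphs (18-to-21-day-old) were added; mortality assessed visually after 6 days at 22-24° C, 50-70% RH.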

Test [3] concerns green peach aphid (Myzus persicae (Sulzer)). Nature of the test: Test D: control of green peach aphid on radish plant, spray. To be noted: Myzus persicae, 144 h, 6 days; for mortality at 50 ppm: sprayed at 50 ppm; for mortality at 250 ppm: sprayed at 250 ppm. In short, it runs like this: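 Radish plants (12-15 days old) pre-infested with 30-40 aphids, sprayed with compound in 10% acetone/water with 300 ppm non-ionic surfactant at 250 and/or 50 ppm, three replicates. Held 6 days at 19-21 °C, 50-70% relative humidity, then mortality scored visually.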

The test system of test [4] is cotton melon aphid (Aphis gossypii (Glover)). The test is described as follows: whole plant or invertebrate. The conditions noted are these: Aphis gossypii, 144 h, 6 days; for mortality at 50 ppm: sprayed at 50 ppm; for mortality at 250 ppm: sprayed at 250 ppm. In short, it runs like this:
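Compounds were formulated in a solution of 10% acetone, […] and 300 ppm Activator 909 non-ionic surfactant and sprayed as 1 mL through an atomizer nozzle 1.27 cm (0.5 inches) above each test unit, with three replicates. Units were pre-infested with 30-40 aphids on leaf pieces via the cut-leaf method, soil covered with sand, then kept 6 days at 19° C. and 70% relative humidity before visual mortality scoring.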

The subject of test [5] is sweetpotato whitefly (Bemisia tabaci (Gennadius)). Nature of the test: Test F: control of sweetpotato whitefly on cotton plant, spray. To be noted: 312 h, 13 days; for mortality at 250 ppm: sprayed at 250 ppm; for mortality at 50 ppm: sprayed at 50 ppm. In short, it runs like this: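 Cotton plants 12–14 days old, trimmed to one true leaf and carrying at least 15 whitefly eggs, were sprayed at 250 and/or 50 ppm in acetone/water with non-ionic surfactant, three replicates. After 13 days at 28° C and 50-70% relative humidity, insect mortality was scored visually.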

Test [6] concerns potato leafhopper (Empoasca fabae (Harris)). The test is described as follows: Test C: control of potato leafhopper on Soleil bean plant, spray. To be noted: Empoasca fabae, 144 h; sprayed at 250 ppm; 6 days. The method, then: as §1
For evaluating control of potato leafhopper (Empoasca fabae (Harris)) through contact and/or systemic means, the test unit consisted of a small open container with a 5-6-day-old Soleil bean plant (primary leaves emerged) inside. White sand was added to the top of the soil, and one of the primary leaves was excised prior to application of the test compound.
[…] After spraying of the formulated test compound, the test units were allowed to dry for 1 hour before they were post-infested with 5 potato leafhoppers (18-to-21-day-old adults). A black, screened cap was placed on the top of the test unit, and the test units were held for 6 days in a growth chamber at 20° C. and 70% relative humidity. Each test unit was then visually assessed for insect mortality.

A value given as a limit tells only on which side of the number the result lay.

Broadly, the mortality is the share of the test organisms that died. Low values mean more survivors, high ones fewer survivors. `Fc1cncc(-n2nccn2)c1C(F)c1ccc(SC(F)(F)F)cc1` (centres unmarked) [Compound 3]: the “control efficacy (40% or less feeding damage and/or 100% mortality)” value in test [1] was “very good to excellent levels of control efficacy”. Besides, the mortality at 50 ppm in test [2], in test [3] and in test [4] was at least 80% throughout. Moreover, the mortality at 250 ppm was at least 80% in test [2], at least 80% in test [3], at least 80% in test [4] and at least 70% in test [5].
`FC(c1ccc(OC(F)(F)F)cc1)c1ccncc1-n1nccn1` (centres unmarked) [Compound 9]: the mortality at 50 ppm in test [2] and in test [4] was at least 80% throughout. Besides, the mortality at 250 ppm in test [2], in test [6] and in test [4] was at least 80% throughout.
Turning to `FC(c1ccc(SC(F)(F)F)cc1)c1c(Cl)cncc1-n1nccn1` (centres unmarked) [Compound 89], the “control efficacy (40% or less feeding damage and/or 100% mortality)” value in test [1] is on record as “very good to excellent levels of control efficacy”. Also, in test [2], the mortality at 10 ppm is at least 80%. In addition, the mortality at 50 ppm is at least 80% in test [2], at least 80% in test [3], at least 80% in test [4] and at least 70% in test [5]. Besides, the mortality at 250 ppm in test [2] is at least 80%; in test [3], at least 80%; in test [4], at least 80%; in test [5] it was at least 70%.
`FC(c1ccc(OC(F)(F)F)cc1)c1ccncc1-n1cccn1` (centres unmarked) [Compound 11]: the mortality at 50 ppm in test [2] and in test [4] was at least 80% in each case. Further, the mortality at 250 ppm in test [2], in test [6], in test [3] and in test [4] was at least 80% each time.
Consider `COC(c1ccc(SC(F)(F)F)cc1)c1c(F)cncc1-n1nccn1` (centres unmarked) [Compound 123], for which the “control efficacy (40% or less feeding damage and/or 100% mortality)” value in test [1] is “very good to excellent levels of control efficacy”. For the same molecule, in test [2], the mortality at 10 ppm was at least 80%. Besides, the mortality at 50 ppm in test [2] was at least 80%; in test [3], at least 80%; in test [4], at least 80%; in test [5], at least 70%. Also, the mortality at 250 ppm in test [2] is at least 80%; in test [3], at least 80%; in test [4], at least 80%; in test [5], at least 70%.
As to `CO[C@H](c1ccc(OC(F)(F)F)cc1)c1c(F)cncc1-n1nccn1` [Compound 125, 3-fluoro-4-[(R)-methoxy-[4-(trifluoromethoxy)phenyl]methyl]-5-(triazol-2 yl)pyridine], in test [1], the “control efficacy (40% or less feeding damage and/or 100% mortality)” value is recorded as “very good to excellent levels of control efficacy”. The molecule also gave a mortality at 10 ppm in test [2] of at least 80%. Also, the mortality at 50 ppm in test [2] is at least 80%; in test [3] it was at least 80%; in test [4], at least 80%; in test [5] it was at least 70%. The mortality at 250 ppm in test [2] is at least 80%; in test [3], at least 80%; in test [4] it was at least 80%; in test [5], at least 70%.
On to `Fc1cncc(-c2ncco2)c1C(F)c1ccc(SC(F)(F)F)cc1` (centres unmarked) [Compound 78], for which the “control efficacy (40% or less feeding damage and/or 100% mortality)” value in test [1] is “very good to excellent levels of control efficacy”. The molecule also displayed a mortality at 10 ppm in test [2] of at least 80%. Moreover, the mortality at 50 ppm was at least 80% in test [2], at least 80% in test [3], at least 80% in test [4] and at least 70% in test [5]. In addition, the mortality at 250 ppm in test [2] was at least 80%; in test [3] it was at least 80%; in test [4], at least 80%; in test [5] it was at least 70%.
